How the values were obtained:
FGFR-1 = molecular target: T1, FGFR-1 (Homo sapiens, UniProt P11362); test: FGFR-1 TR-FRET biochemical assay; details: 0.6 uM ATP, 5 nM FGFR1-GST; bounds given in nM
T1 construct: GST; made in house
Outline: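 In this LANCE time-resolved FRET format, compounds at final 10 μM–0.128 nM (1% DMSO, 1:5 series) were preincubated before enzyme start. Reactions ran for one hour at room temperature with 0.6 uM ATP, 25 nM biotinylated poly GT and 5 nM GST-tagged FGFR1. Inhibition was calculated from the 665/615 nm ratio minus the ATP-free background.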

H460 = test: Tumor cell proliferation (H460 proliferation assay); type: cell-based; details: Homo sapiens, NCI-H460, 72 h, Alamar Blue
Procedure: (§1) Human tumor cells (e.g., HCT116 or MDA-MB-231 cells), were seeded in a Costar 96-well plate at 3.0×10^3 cells/well and grown in 150 μl of RPMI complete media (Invitrogen Corporation, Grand Island, N.Y.) containing 10% fetal bovine serum (Hyclone, Logan, Utah) at 37° C. for 16 h in an incubator with 5% CO2. To each well, 50 μl of additional growth media containing 40 μM to 18 nM concentrations of compound with 0.4% DMSO was added. Cells were grown for another 72 h at 37° C. with 5% CO2. 20 μl of Alamar Blue (Trek Diagnostic Systems, Inc., Cleveland, Ohio) reagent was added to each well and incubated for 3 h at 37° C. Plates were read in a SpectraMax Gemini (Molecular Devices, CA) with 544 nm excitation and 590 nm emission wavelength. IC50 values were determined by linear regression analysis of log drug concentration versus percent inhibition.

HCT116 cells = test: Tumor cell proliferation (HCT116 proliferation assay); type: cell-based; details: Homo sapiens, HCT-116, 72 h, Alamar Blue
Procedure: as §1

MDA-MB-231 cells = test: Tumor cell proliferation (MDA-MB-231 proliferation assay); type: cell-based; details: Homo sapiens, MDA-MB-231, 72 h, Alamar Blue
Procedure: as §1

[1] = lower bound of the bin 'greater than 500 nM but less than 4 μM'
[2] = upper bound of the bin 'greater than 500 nM but less than 4 μM'

T1 sequence (P11362 22-822): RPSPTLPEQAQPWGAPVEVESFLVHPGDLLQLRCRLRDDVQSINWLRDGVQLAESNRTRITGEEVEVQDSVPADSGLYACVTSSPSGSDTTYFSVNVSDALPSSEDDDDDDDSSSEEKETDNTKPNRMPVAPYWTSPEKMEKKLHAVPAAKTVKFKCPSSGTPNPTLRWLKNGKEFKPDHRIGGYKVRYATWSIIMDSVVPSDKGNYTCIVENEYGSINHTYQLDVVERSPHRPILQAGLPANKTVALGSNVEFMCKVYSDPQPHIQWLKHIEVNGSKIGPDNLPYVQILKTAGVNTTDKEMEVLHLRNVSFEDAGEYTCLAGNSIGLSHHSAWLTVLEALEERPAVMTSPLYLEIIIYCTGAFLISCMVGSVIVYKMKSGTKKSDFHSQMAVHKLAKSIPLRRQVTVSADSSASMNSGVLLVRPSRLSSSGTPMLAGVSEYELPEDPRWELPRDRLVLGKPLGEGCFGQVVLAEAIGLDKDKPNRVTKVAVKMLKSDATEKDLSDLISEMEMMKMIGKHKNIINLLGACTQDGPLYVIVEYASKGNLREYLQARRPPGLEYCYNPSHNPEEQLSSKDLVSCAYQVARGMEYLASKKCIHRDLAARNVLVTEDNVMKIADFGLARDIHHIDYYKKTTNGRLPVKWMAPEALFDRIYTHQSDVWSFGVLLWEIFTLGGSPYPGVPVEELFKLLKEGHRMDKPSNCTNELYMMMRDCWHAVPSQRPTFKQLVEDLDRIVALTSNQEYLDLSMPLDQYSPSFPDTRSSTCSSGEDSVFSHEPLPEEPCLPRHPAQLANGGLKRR

Structure (SMILES): Nc1ncnn2c(CN3CCOCC3)cc(-c3ccc(NC(=O)Nc4ccc(F)c(C(F)(F)F)c4)cc3)c12 [Example 6, N-{4-[4-amino-7-(morpholin-4-ylmethyl)-pyrrolo[2,1-f][1,2,4]triazin-5-yl]phenyl}-N′-[4-fluoro-3-(trifluoromethyl)phenyl]urea]
- IC50 (FGFR-1): < 10 nM
- IC50 (H460; [1]): > 500 nM
- IC50 (H460; [2]): < 4000 nM
- IC50 (HCT116 cells; [1]): > 500 nM
- IC50 (HCT116 cells; [2]): < 4000 nM
- IC50 (MDA-MB-231 cells; lower bound of the bin 'greater than 500 nM but less than 3 μM'): > 500 nM
- IC50 (MDA-MB-231 cells; upper bound of the bin 'greater than 500 nM but less than 3 μM'): < 3000 nM

From patent US8143393B2, “Substituted 4-amino-pyrrolotriazine derivatives useful for treating hyper-proliferative disorders and diseases associated with angiogenesis” (Bayer HealthCare LLC, priority 2005, dated 2012)
